Laboratory results published in patent US20200129524A1, “PERSONALIZED CONTRACEPTIVE FORMULATIONS” (Agile Therapeutics, Inc., priority 2017, published 2020).

Tests used:
healthy women [1] = experiment: Clinical trial of contraceptive effectiveness of a transdermal patch (% of women pregnant by weight or BMI category); assay type: in vivo; conditions: 120 μg/d LNG + 30 μg/d EE patch, 13 cycles (one year)
Source text: To obtain the required data that would allow us to determine the personalized dosage of progestin required for each woman, we performed a clinical trial which is shown below as Example 1. When administered 120 micrograms per day of levonorgestrel (LNG), the number of women in each body weight category and the percent of the women in each category that became pregnant over a period of one year is shown in Table 1 and graphically depicted in FIG. 1.
In a clinical trial, 2032 healthy women, aged 18 and over, were enrolled in 102 investigative sites in the US. It was an open label, 13 cycle trial (one year) to study the effectiveness of a transdermal patch delivering 120 μg per day of levonorgestrel (LNG) and 30 μg per day of ethinyl estradiol (EE). The treatment regimen for each cycle was three consecutive 7-day patches (21 days) followed by one patch-free week.
The women enrolled in the different weight categories (in pounds) are shown in the second column of Table 1.
The percentage of women that became pregnant over the 13 cycle period is shown in column 3 of Table 1. A graph of the percentage of women that became pregnant in each weight category is also graphically illustrated in FIG. 1.
The same analysis was performed using the BMI of the women enrolled in the trial.

healthy women [2] = experiment: Statistical (quadratic regression) analysis of LNG required dose with confidence limits; assay type: in vivo; design: dose required: unit: μg; conditions: for Daily LNG Required Dose, 1.5% Pregnancy Rate Dose / Daily LNG Required Dose, 3% Pregnancy Rate Dose: EE 30 μg; for level of LNG equivalent: women with body weight of over 200 pounds, 30 μg EE per day
Source text: Z represents the applicable coefficient to obtain a desired level of confidence (e.g. a coefficient of two would imply a 95.5% confidence level and a coefficient of three would imply a 99.7% confidence level). The other variables are the same as indicated above. For example, the dose required for a 150 pound person assuming a 95% confidence level would be determined as follows: […]
Table 7 and FIG. 6 summarize the maximum and the minimum dose of levonorgestrel levels required at the 95.5% level of confidence (two standard deviation units, i.e., two σ) for varying woman BMI categories.
Table 7a and FIG. 6a summarize the maximum and the minimum dose of levonorgestrel levels required at the 68% level of confidence (one standard deviation unit, i.e., one σ) for varying woman BMI categories.
A review of the data points associated with Tables 4 and 5 reveal again a relationship which could be linear or quadratic. Again, since the data has substantial variability in the individual points a statistical analysis of the data was performed. The applicable linear and quadratic equations had correlation coefficients R2 of 0.73 for both 1.5 and 3% pregnancy rates. The standard error for the 1.5% pregnancy rate (linear VS quadratic) as well as the 3% pregnancy rate (linear versus quadratic) was within 10 micrograms of each other. […] We chose to draw FIGS. 4a and 4b based on the quadratic equations, so as to have an easier comparison to the corresponding body weight lines in FIGS. 3a and 3b.
As indicated above the implied equation is shown below, where the symbols Y and X are the same as presented above. The correlation coefficient R2 is 0.73 and the standard error 94.3 micrograms.
The correlation coefficient, R2 is 0.73 and the standard error 46.8. The above equation can be modified to provide a 95.5% confidence level as follows
Table 7 and FIG. 6 summarize the maximum and minimum dose of levonorgestrel levels required at the 95% confidence for varying woman BMI categories as determined from the modified equations described above.
Therefore another practical approach is to treat all women with body weight of over 200 pounds with the same formulations. For example for women co-administered 30 μg EE per day, the level of LNG equivalent would be 350 μg per day (for the 1.5% pregnancy level), and 200 μg per day (for the 3% pregnancy level). An intermediate level of 260 μg per day can also be prepared.

[3] = BMI >17.5 < 22.5, 68% confidence level, 30 μg EE
[4] = BMI >17.5 < 22.5, 95.5% confidence level, 30 μg EE
[5] = BMI >22.5 < 27.5, 68% confidence level, 30 μg EE
[6] = BMI >22.5 < 27.5, 95.5% confidence level, 30 μg EE
[7] = BMI >27.5 < 32.5, 68% confidence level, 30 μg EE
[8] = BMI >27.5 < 32.5, 95.5% confidence level, 30 μg EE
[9] = BMI >32.5 < 37.5, 68% confidence level, 30 μg EE
[10] = BMI >32.5 < 37.5, 95.5% confidence level, 30 μg EE
[11] = BMI >37.5 < 42.5, 68% confidence level, 30 μg EE
[12] = BMI >37.5 < 42.5, 95.5% confidence level, 30 μg EE
[13] = BMI >42.5 < 47.5, 68% confidence level, 30 μg EE
[14] = BMI >42.5 < 47.5, 95.5% confidence level, 30 μg EE
[15] = BMI >47.5 < 52.5, 68% confidence level, 30 μg EE
[16] = BMI >47.5 < 52.5, 95.5% confidence level, 30 μg EE
[17] = weight 90 to ≤120, 68% confidence level
[18] = weight 90 to ≤120, 95.5% confidence level
[19] = weight 120 to ≤150, 68% confidence level
[20] = weight 120 to ≤150, 95.5% confidence level
[21] = weight 150 to ≤180, 68% confidence level
[22] = weight 150 to ≤180, 95.5% confidence level
[23] = weight 180 to ≤210, 68% confidence level
[24] = weight 180 to ≤210, 95.5% confidence level
[25] = weight 210 to ≤240, 68% confidence level
[26] = weight 210 to ≤240, 95.5% confidence level
[27] = weight 240 to ≤270, 68% confidence level
[28] = weight 240 to ≤270, 95.5% confidence level
[29] = weight 270+, 68% confidence level
[30] = weight 270+, 95.5% confidence level

Compound: C#C[C@]1(O)CC[C@H]2[C@@H]3CCC4=CC(=O)CC[C@@H]4[C@H]3CC[C@@]21CC [LNG, levonorgestrel]
- % of pregnancies (healthy women [1]; weight category >90 but ≤ 120 pounds): 1.5%
- % of pregnancies (healthy women [1]; weight category >120 but ≤ 150 pounds): 2.66%
- dose required (healthy women [2]; 25 BMI woman, 95% confidence level, 3% pregnancy rate): 26
- LNG daily dosage, high boundary value (healthy women [2]; 27.5 BMI woman, 95.5% confidence, pregnancy rate of 1.5%): 430 microgram
- daily dose, low boundary value (healthy women [2]; 150 pound person, 95.5% confidence, 3 pregnancies per 100 woman years, 30 μg EE): 62.4 µg
- daily dose, high boundary value (healthy women [2]; 150 pound person, 95.5% confidence, pregnancy rate of 1.5%, 30 μg EE): 302 µg
- LNG Daily Required Dose, 1.5% Pregnancy Rate (healthy women [2]; [3]): 283 µg
- LNG Daily Required Dose, 3% Pregnancy Rate (healthy women [2]; [3]): 47 µg
- LNG Daily Required Dose, 1.5% Pregnancy Rate (healthy women [2]; [4]): 378 µg
- LNG Daily Required Dose, 3% Pregnancy Rate (healthy women [2]; [4]): 0.1 µg
- LNG Daily Required Dose, 1.5% Pregnancy Rate (healthy women [2]; [5]): 335 µg
- LNG Daily Required Dose, 3% Pregnancy Rate (healthy women [2]; [5]): 72 µg
- LNG Daily Required Dose, 1.5% Pregnancy Rate (healthy women [2]; [6]): 430 µg
- LNG Daily Required Dose, 3% Pregnancy Rate (healthy women [2]; [6]): 26 µg
- LNG Daily Required Dose, 1.5% Pregnancy Rate (healthy women [2]; [7]): 390 µg
- LNG Daily Required Dose, 3% Pregnancy Rate (healthy women [2]; [7]): 99 µg
- LNG Daily Required Dose, 1.5% Pregnancy Rate (healthy women [2]; [8]): 484 µg
- LNG Daily Required Dose, 3% Pregnancy Rate (healthy women [2]; [8]): 52 µg
- LNG Daily Required Dose, 1.5% Pregnancy Rate (healthy women [2]; [9]): 447 µg
- LNG Daily Required Dose, 3% Pregnancy Rate (healthy women [2]; [9]): 127 µg
- LNG Daily Required Dose, 1.5% Pregnancy Rate (healthy women [2]; [10]): 541 µg
- LNG Daily Required Dose, 3% Pregnancy Rate (healthy women [2]; [10]): 80 µg
- LNG Daily Required Dose, 1.5% Pregnancy Rate (healthy women [2]; [11]): 507 µg
- LNG Daily Required Dose, 3% Pregnancy Rate (healthy women [2]; [11]): 157 µg
- LNG Daily Required Dose, 1.5% Pregnancy Rate (healthy women [2]; [12]): 601 µg
- LNG Daily Required Dose, 3% Pregnancy Rate (healthy women [2]; [12]): 110 µg
- LNG Daily Required Dose, 1.5% Pregnancy Rate (healthy women [2]; [13]): 569 µg
- LNG Daily Required Dose, 3% Pregnancy Rate (healthy women [2]; [13]): 187 µg
- LNG Daily Required Dose, 1.5% Pregnancy Rate (healthy women [2]; [14]): 663 µg
- LNG Daily Required Dose, 3% Pregnancy Rate (healthy women [2]; [14]): 140 µg
- LNG Daily Required Dose, 1.5% Pregnancy Rate (healthy women [2]; [15]): 633 µg
- LNG Daily Required Dose, 3% Pregnancy Rate (healthy women [2]; [15]): 219 µg
- LNG Daily Required Dose, 1.5% Pregnancy Rate (healthy women [2]; [16]): 728 µg
- LNG Daily Required Dose, 3% Pregnancy Rate (healthy women [2]; [16]): 172 µg
- Daily LNG Required Dose, 1.5% Pregnancy Rate Dose (healthy women [2]; [17]): 171 µg/day
- Daily LNG Required Dose, 3% Pregnancy Rate Dose (healthy women [2]; [17]): 41 µg/day
- Daily LNG Required Dose, 1.5% Pregnancy Rate Dose (healthy women [2]; [18]): 215 µg/day
- Daily LNG Required Dose, 3% Pregnancy Rate Dose (healthy women [2]; [18]): 19 µg/day
- Daily LNG Required Dose, 1.5% Pregnancy Rate Dose (healthy women [2]; [19]): 258 µg/day
- Daily LNG Required Dose, 3% Pregnancy Rate Dose (healthy women [2]; [19]): 84 µg/day
- Daily LNG Required Dose, 1.5% Pregnancy Rate Dose (healthy women [2]; [20]): 302 µg/day
- Daily LNG Required Dose, 3% Pregnancy Rate Dose (healthy women [2]; [20]): 62 µg/day
- Daily LNG Required Dose, 1.5% Pregnancy Rate Dose (healthy women [2]; [21]): 331 µg/day
- Daily LNG Required Dose, 3% Pregnancy Rate Dose (healthy women [2]; [21]): 120 µg/day
- Daily LNG Required Dose, 1.5% Pregnancy Rate Dose (healthy women [2]; [22]): 375 µg/day
- Daily LNG Required Dose, 3% Pregnancy Rate Dose (healthy women [2]; [22]): 98 µg/day
- Daily LNG Required Dose, 1.5% Pregnancy Rate Dose (healthy women [2]; [23]): 389 µg/day
- Daily LNG Required Dose, 3% Pregnancy Rate Dose (healthy women [2]; [23]): 148 µg/day
- Daily LNG Required Dose, 1.5% Pregnancy Rate Dose (healthy women [2]; [24]): 433 µg/day
- Daily LNG Required Dose, 3% Pregnancy Rate Dose (healthy women [2]; [24]): 126 µg/day
- Daily LNG Required Dose, 1.5% Pregnancy Rate Dose (healthy women [2]; [25]): 432 µg/day
- Daily LNG Required Dose, 3% Pregnancy Rate Dose (healthy women [2]; [25]): 169 µg/day
- Daily LNG Required Dose, 1.5% Pregnancy Rate Dose (healthy women [2]; [26]): 476 µg/day
- Daily LNG Required Dose, 3% Pregnancy Rate Dose (healthy women [2]; [26]): 147 µg/day
- Daily LNG Required Dose, 1.5% Pregnancy Rate Dose (healthy women [2]; [27]): 459 µg/day
- Daily LNG Required Dose, 3% Pregnancy Rate Dose (healthy women [2]; [27]): 183 µg/day
- Daily LNG Required Dose, 1.5% Pregnancy Rate Dose (healthy women [2]; [28]): 503 µg/day
- Daily LNG Required Dose, 3% Pregnancy Rate Dose (healthy women [2]; [28]): 161 µg/day
- Daily LNG Required Dose, 1.5% Pregnancy Rate Dose (healthy women [2]; [29]): 472 µg/day
- Daily LNG Required Dose, 3% Pregnancy Rate Dose (healthy women [2]; [29]): 189 µg/day
- Daily LNG Required Dose, 1.5% Pregnancy Rate Dose (healthy women [2]; [30]): 516 µg/day
- Daily LNG Required Dose, 3% Pregnancy Rate Dose (healthy women [2]; [30]): 167 µg/day
- level of LNG equivalent (healthy women [2]; 1.5% pregnancy level): 350 μg per day
- level of LNG equivalent (healthy women [2]; 3% pregnancy level): 200 μg per day
